Values quoted from earlier work, collected in patent US6743953B2, “Process for the preparation of xanthophyll crystals” (Kancor Flavours & Extracts Ltd., priority 2002, dated 2004).
Where two headings read alike, the source gives them in different places.

Columns and labels:
[1] = not given; remark: listed apart in the source

## CC1=C[C@H](O)CC(C)(C)[C@H]1/C=C/C(C)=C/C=C/C(C)=C/C=C/C=C(C)/C=C/C=C(C)/C=C/C1=C(C)C[C@@H](O)CC1(C)C [Lutein, (3R,3′R,6′R)-β,ε-carotene-3,3′-diol]
Solvent Acetone
  Stability of Lutein in Solvent: Good
Solvent Benzene
  Stability of Lutein in Solvent: Good
Solvent Chloroform
  Stability of Lutein in Solvent: Good
Solvent Cyclohexanone
  Stability of Lutein in Solvent: Poor
Solvent Dichloromethane
  Stability of Lutein in Solvent: Good
Solvent Ethyl Acetate
  Stability of Lutein in Solvent: Good
Solvent Hexane
  Stability of Lutein in Solvent: Good
Solvent Tetrahydrofuran
  Stability of Lutein in Solvent: Good
Solvent Toluene
  Stability of Lutein in Solvent: Good
[1]; solvent Acetone
  Solubility of Lutein in Solvent: 800 Mg/litre
[1]; solvent Benzene
  Solubility of Lutein in Solvent: 600 Mg/litre
[1]; solvent Chloroform
  Solubility of Lutein in Solvent: 6000 Mg/litre
[1]; solvent Cyclohexanone
  Solubility of Lutein in Solvent: 4000 Mg/litre
[1]; solvent Dichloromethane
  Solubility of Lutein in Solvent: 800 Mg/litre
[1]; solvent Ethyl Acetate
  Solubility of Lutein in Solvent: 800 Mg/litre
[1]; solvent Hexane
  Solubility of Lutein in Solvent: 20 Mg/litre
[1]; solvent Tetrahydrofuran
  Solubility of Lutein in Solvent: 8000 Mg/litre
[1]; solvent Toluene
  Solubility of Lutein in Solvent: 400 Mg/litre
